Assay results as given in ChEMBL document CHEMBL1909046, “DrugMatrix in vitro pharmacology data”.

Assays:
Calcitonin receptor = molecular target: T1, Calcitonin receptor (Homo sapiens, UniProt P30988); type: cell membranes, Membrane; conditions: t47d; also: in other assays of this panel Not Active means under 50% inhibition at 10 µM
T1 sequence (P30988 whole entry): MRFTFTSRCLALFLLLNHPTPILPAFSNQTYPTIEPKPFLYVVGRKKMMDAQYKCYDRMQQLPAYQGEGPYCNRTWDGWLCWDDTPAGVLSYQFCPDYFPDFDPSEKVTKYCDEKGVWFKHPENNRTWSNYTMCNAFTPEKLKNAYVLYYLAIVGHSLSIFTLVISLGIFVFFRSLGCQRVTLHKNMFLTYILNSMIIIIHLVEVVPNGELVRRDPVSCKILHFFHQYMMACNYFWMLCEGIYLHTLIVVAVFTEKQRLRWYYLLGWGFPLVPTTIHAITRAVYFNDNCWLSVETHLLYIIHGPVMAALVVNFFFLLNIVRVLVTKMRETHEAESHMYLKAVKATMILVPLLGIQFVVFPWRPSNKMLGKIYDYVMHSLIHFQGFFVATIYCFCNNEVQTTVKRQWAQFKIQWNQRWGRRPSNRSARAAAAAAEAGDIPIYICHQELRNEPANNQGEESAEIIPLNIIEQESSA

Interstitial collagenase = molecular target: T2, Interstitial collagenase (Homo sapiens, UniProt P03956); type: tissue-based, Rheumatoid synovial fibroblasts;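 also: MMP-1 enzyme inhibition assay using a peptide substrate; in other assays of this panel Not Active means under 50% inhibition at 10 µM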
T2 sequence (P03956 whole entry): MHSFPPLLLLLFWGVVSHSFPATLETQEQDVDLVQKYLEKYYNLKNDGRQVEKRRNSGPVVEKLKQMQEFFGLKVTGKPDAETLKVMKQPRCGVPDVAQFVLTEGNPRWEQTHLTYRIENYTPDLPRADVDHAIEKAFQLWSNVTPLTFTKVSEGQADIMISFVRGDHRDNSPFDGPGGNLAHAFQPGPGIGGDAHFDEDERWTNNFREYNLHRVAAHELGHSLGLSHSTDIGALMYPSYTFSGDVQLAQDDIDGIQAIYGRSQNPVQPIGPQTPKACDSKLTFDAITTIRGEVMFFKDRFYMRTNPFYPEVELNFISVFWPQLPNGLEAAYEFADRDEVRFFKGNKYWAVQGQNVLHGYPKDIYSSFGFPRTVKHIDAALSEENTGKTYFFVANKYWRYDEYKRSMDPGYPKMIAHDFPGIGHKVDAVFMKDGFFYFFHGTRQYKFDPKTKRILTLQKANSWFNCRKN

Estrogen receptor = molecular target: T3, Estrogen receptor (Homo sapiens, UniProt P03372); conditions: sf9; also: in other assays of this panel Not Active means under 50% inhibition at 10 µM
T3 sequence (P03372 whole entry): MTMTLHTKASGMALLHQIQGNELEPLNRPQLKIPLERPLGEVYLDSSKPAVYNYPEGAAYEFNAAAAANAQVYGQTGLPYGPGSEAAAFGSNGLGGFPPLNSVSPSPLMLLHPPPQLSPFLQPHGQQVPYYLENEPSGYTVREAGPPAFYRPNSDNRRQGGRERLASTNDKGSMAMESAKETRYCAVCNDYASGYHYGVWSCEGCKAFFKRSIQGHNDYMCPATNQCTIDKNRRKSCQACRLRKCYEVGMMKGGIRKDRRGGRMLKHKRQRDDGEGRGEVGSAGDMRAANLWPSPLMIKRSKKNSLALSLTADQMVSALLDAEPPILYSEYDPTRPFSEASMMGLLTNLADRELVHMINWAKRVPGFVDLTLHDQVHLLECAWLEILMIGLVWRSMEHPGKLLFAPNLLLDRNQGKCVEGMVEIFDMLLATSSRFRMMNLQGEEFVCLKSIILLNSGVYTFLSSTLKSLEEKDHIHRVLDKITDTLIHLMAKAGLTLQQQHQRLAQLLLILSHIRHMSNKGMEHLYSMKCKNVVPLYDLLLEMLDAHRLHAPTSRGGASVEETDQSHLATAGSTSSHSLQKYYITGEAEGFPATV

[1] = DRUGMATRIX: beta-Lactamase enzyme inhibition (substrate: Nitrocefin); set-up: species or system Bacillus cereus; conditions: Not Active = under 50% inhibition at 10 µM
Cannabinoid receptor 1 = Cannabinoid receptor 1 (Homo sapiens, UniProt P21554); type: cell membranes, Membrane; conditions: chem-1; also: in other assays of this panel Not Active means under 50% inhibition at 10 µM
[2] = DRUGMATRIX: Glutamate, Kainate radioligand binding (ligand: [3H] Kainic acid); type: cell membranes, Rattus norvegicus, Wistar, Brain, Membrane; conditions: Not Active = under 50% inhibition at 10 µM
[3] = molecular target: T4, C-X-C chemokine receptor type 1 (Homo sapiens, UniProt P25024); also: in other assays of this panel Not Active means under 50% inhibition at 10 µM
T4 sequence (P25024 whole entry): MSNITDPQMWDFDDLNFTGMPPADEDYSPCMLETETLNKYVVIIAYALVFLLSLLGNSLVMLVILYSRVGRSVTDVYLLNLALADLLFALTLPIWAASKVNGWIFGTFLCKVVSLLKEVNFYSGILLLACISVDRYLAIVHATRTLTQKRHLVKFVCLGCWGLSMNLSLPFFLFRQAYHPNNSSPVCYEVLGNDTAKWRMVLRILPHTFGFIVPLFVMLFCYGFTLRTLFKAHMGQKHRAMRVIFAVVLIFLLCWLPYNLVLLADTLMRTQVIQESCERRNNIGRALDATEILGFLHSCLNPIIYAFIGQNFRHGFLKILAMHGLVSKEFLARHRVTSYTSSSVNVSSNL

[4] = DRUGMATRIX: Phosphodiesterase PDE3 enzyme inhibition (substrate: [3H]cAMP + cAMP); type: tissue-based, Homo sapiens; conditions: platelet; Not Active = under 50% inhibition at 10 µM

Sequence of Cannabinoid receptor 1 (P21554 whole entry): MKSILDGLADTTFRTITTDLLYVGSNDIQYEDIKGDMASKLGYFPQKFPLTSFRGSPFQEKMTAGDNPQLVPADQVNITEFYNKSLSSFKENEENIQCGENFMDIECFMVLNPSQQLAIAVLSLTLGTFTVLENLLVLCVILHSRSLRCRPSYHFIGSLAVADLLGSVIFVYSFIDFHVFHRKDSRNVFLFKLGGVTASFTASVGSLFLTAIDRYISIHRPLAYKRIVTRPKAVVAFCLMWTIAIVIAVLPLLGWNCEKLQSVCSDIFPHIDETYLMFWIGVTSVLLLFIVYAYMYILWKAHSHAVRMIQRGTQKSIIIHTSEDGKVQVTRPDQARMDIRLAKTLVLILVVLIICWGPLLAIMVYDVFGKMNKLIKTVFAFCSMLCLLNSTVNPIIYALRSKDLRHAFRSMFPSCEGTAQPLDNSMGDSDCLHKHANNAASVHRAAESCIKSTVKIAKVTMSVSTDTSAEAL

CC(C)(Oc1ccc(C2CC2(Cl)Cl)cc1)C(=O)O (stereo not drawn) [CIPROFIBRATE]
Not Active: IC50 (Calcitonin receptor) | IC50 (Interstitial collagenase) | IC50 (Estrogen receptor) | IC50 [1] | Ki [1] | IC50 (Cannabinoid receptor 1) | IC50 [2] | Ki [2] | IC50 [3] | IC50 [4] | Ki [4]

CC[C@H]1OC(=O)[C@H](C)[C@@H](O[C@H]2C[C@@](C)(OC)[C@@H](O)[C@H](C)O2)[C@H](C)[C@@H](O[C@@H]2O[C@H](C)C[C@H](N(C)C)[C@H]2O)[C@](C)(OC)C[C@@H](C)C(=O)[C@H](C)[C@@H](O)[C@]1(C)O [CLARITHROMYCIN]
Not Active: IC50 (Calcitonin receptor) | IC50 (Interstitial collagenase) | IC50 (Estrogen receptor) | IC50 [1] | Ki [1] | IC50 (Cannabinoid receptor 1) | IC50 [2] | Ki [2] | IC50 [3] | IC50 [4] | Ki [4]

CCC[C@@H]1C[C@@H](C(=O)N[C@@H]([C@H]2O[C@H](SC)[C@H](O)[C@@H](O)[C@H]2O)[C@H](C)Cl)N(C)C1 [CLINDAMYCIN]
Not Active: IC50 (Calcitonin receptor) | IC50 (Interstitial collagenase) | IC50 (Estrogen receptor) | IC50 [1] | Ki [1] | IC50 (Cannabinoid receptor 1) | IC50 [2] | Ki [2] | IC50 [3] | IC50 [4] | Ki [4]

O=C(O)c1cc(=O)c2c(OCC(O)COc3cccc4oc(C(=O)O)cc(=O)c34)cccc2o1 [CROMOLYN]
Not Active: IC50 (Calcitonin receptor) | IC50 (Interstitial collagenase) | IC50 (Estrogen receptor) | IC50 [1] | Ki [1] | IC50 (Cannabinoid receptor 1) | IC50 [2] | Ki [2] | IC50 [3] | IC50 [4] | Ki [4]

O=P1(N(CCCl)CCCl)NCCCO1 (stereo not drawn) [CYCLOPHOSPHAMIDE ANHYDROUS]
Not Active: IC50 (Calcitonin receptor) | IC50 (Interstitial collagenase) | IC50 (Estrogen receptor) | IC50 [1] | Ki [1] | IC50 (Cannabinoid receptor 1) | IC50 [2] | Ki [2] | IC50 [3] | IC50 [4] | Ki [4]

CCN[C@@H](C)Cc1cccc(C(F)(F)F)c1 [DEXFENFLURAMINE]
Not Active: IC50 (Calcitonin receptor) | IC50 (Interstitial collagenase) | IC50 (Estrogen receptor) | IC50 [1] | Ki [1] | IC50 (Cannabinoid receptor 1) | IC50 [2] | Ki [2] | IC50 [3] | IC50 [4] | Ki [4]

C[C@H](C(=O)O)c1cccc(C(=O)c2ccccc2)c1 [DEXKETOPROFEN]
Not Active: IC50 (Calcitonin receptor) | IC50 (Interstitial collagenase) | IC50 (Estrogen receptor) | IC50 [1] | Ki [1] | IC50 (Cannabinoid receptor 1) | IC50 [2] | Ki [2] | IC50 [3] | IC50 [4] | Ki [4]

CN1C[C@H](C(=O)N[C@]2(C)O[C@@]3(O)[C@@H]4CCCN4C(=O)[C@H](Cc4ccccc4)N3C2=O)C[C@@H]2c3cccc4[nH]cc(c34)C[C@H]21 [DIHYDROERGOTAMINE]
Not Active: IC50 (Calcitonin receptor) | IC50 (Interstitial collagenase) | IC50 (Estrogen receptor) | IC50 [1] | Ki [1] | IC50 (Cannabinoid receptor 1) | IC50 [2] | Ki [2] | IC50 [3] | IC50 [4] | Ki [4]

CC(CCc1ccc(O)cc1)NCCc1ccc(O)c(O)c1 (stereo not drawn) [DOBUTAMINE]
Not Active: IC50 (Calcitonin receptor) | IC50 (Interstitial collagenase) | IC50 (Estrogen receptor) | IC50 [1] | Ki [1] | IC50 (Cannabinoid receptor 1) | IC50 [2] | Ki [2] | IC50 [3] | IC50 [4] | Ki [4]

CCn1cc(C(=O)O)c(=O)c2cc(F)c(N3CCNCC3)nc21 [ENOXACIN]
Not Active: IC50 (Calcitonin receptor) | IC50 (Interstitial collagenase) | IC50 (Estrogen receptor) | IC50 [1] | Ki [1] | IC50 (Cannabinoid receptor 1) | IC50 [2] | Ki [2] | IC50 [3] | IC50 [4] | Ki [4]

CCC(=O)O[C@H]1[C@H](O[C@@H]2[C@@H](C)[C@H](O[C@H]3C[C@@](C)(OC)[C@@H](O)[C@H](C)O3)[C@@H](C)C(=O)O[C@H](CC)[C@@](C)(O)[C@H](O)[C@@H](C)C(=O)[C@H](C)C[C@@]2(C)O)O[C@H](C)C[C@@H]1N(C)C [ERYTHROMYCIN PROPIONATE]
Not Active: IC50 (Calcitonin receptor) | IC50 (Interstitial collagenase) | IC50 (Estrogen receptor) | IC50 [1] | Ki [1] | IC50 (Cannabinoid receptor 1) | IC50 [2] | Ki [2] | IC50 [3] | IC50 [4] | Ki [4]

C=C(CC)C(=O)c1ccc(OCC(=O)O)c(Cl)c1Cl [ETHACRYNIC ACID]
Not Active: IC50 (Calcitonin receptor) | IC50 (Interstitial collagenase) | IC50 (Estrogen receptor) | IC50 [1] | Ki [1] | IC50 (Cannabinoid receptor 1) | IC50 [2] | Ki [2] | IC50 [3] | IC50 [4] | Ki [4]

OCCO [ETHYLENE GLYCOL]
Not Active: IC50 (Calcitonin receptor) | IC50 (Interstitial collagenase) | IC50 (Estrogen receptor) | IC50 [1] | Ki [1] | IC50 (Cannabinoid receptor 1) | IC50 [2] | Ki [2] | IC50 [3] | IC50 [4] | Ki [4]

CC(=O)OCC(CCn1cnc2cnc(N)nc21)COC(C)=O [FAMCICLOVIR]
Not Active: IC50 (Calcitonin receptor) | IC50 (Interstitial collagenase) | IC50 (Estrogen receptor) | IC50 [1] | Ki [1] | IC50 (Cannabinoid receptor 1) | IC50 [2] | Ki [2] | IC50 [3] | IC50 [4] | Ki [4]

O=C(O)Cc1ccc(-c2ccccc2)cc1 [FELBINAC]
Not Active: IC50 (Calcitonin receptor) | IC50 (Interstitial collagenase) | IC50 (Estrogen receptor) | IC50 [1] | Ki [1] | IC50 (Cannabinoid receptor 1) | IC50 [2] | Ki [2] | IC50 [3] | IC50 [4] | Ki [4]

CCOC(=O)C1=C(C)NC(C)=C(C(=O)OC)C1c1cccc(Cl)c1Cl (stereo not drawn) [FELODIPINE]
Not Active: IC50 (Calcitonin receptor) | IC50 (Interstitial collagenase) | IC50 (Estrogen receptor) | IC50 [1] | Ki [1] | IC50 (Cannabinoid receptor 1) | IC50 [2] | Ki [2] | IC50 [3] | IC50 [4] | Ki [4]

CC(C(=O)O)c1ccc(-c2ccccc2)c(F)c1 (stereo not drawn) [FLURBIPROFEN]
Not Active: IC50 (Calcitonin receptor) | IC50 (Interstitial collagenase) | IC50 (Estrogen receptor) | IC50 [1] | Ki [1] | IC50 (Cannabinoid receptor 1) | IC50 [2] | Ki [2] | IC50 [3] | IC50 [4] | Ki [4]

Cc1cn[nH]c1 [FOMEPIZOLE]
Not Active: IC50 (Calcitonin receptor) | IC50 (Interstitial collagenase) | IC50 (Estrogen receptor) | IC50 [1] | Ki [1] | IC50 (Cannabinoid receptor 1) | IC50 [2] | Ki [2] | IC50 [3] | IC50 [4] | Ki [4]
